Laboratory results: patent publication US20180370927A1, “MICROBIOCIDAL OXADIAZOLE DERIVATIVES” (SYNGENTA PARTICIPATIONS AG, priority 2015, published 2018)

How the values were obtained:
[1] = test system: Puccinia recondita f. Sp. Tritici; test: Puccinia recondita f. sp. tritici / wheat / leaf disc preventative (brown rust); type: in vivo; conditions: foliar, 200 ppm in the applied formulation, wheat leaf segments, preventative, assessed 7 to 9 days after application, read-out: disease control compared to untreated control leaf disks
How it was run: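 Wheat cv. Kanzler leaf segments on agar sprayed with formulated compound in water, inoculated with rust spores 1 day later. Incubated at 19° C, 75% rh, 12 h light/12 h dark; percent disease control versus untreated scored 7 to 9 days after application; tested at 200 ppm.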

[2] = test system: Puccinia recondita f. Sp. Tritici; test: Puccinia recondita f. sp. tritici / wheat / leaf disc curative (brown rust); type: in vivo; conditions: foliar, 200 ppm in the applied formulation, wheat leaf segments, curative (applied 1 day after inoculation), assessed 6 to 8 days after application, read-out: disease control compared to untreated control leaf disks
How it was run: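 Wheat cv. Kanzler leaf segments on agar were inoculated with spores, kept dark at 19° C, 75% RH, then sprayed with diluted formulated compound 1 day after inoculation (curative). Incubation continued at 19° C, 75% RH, 12 h light/12 h dark, with percent disease control versus untreated scored 6 to 8 days after application.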

[3] = test system: Glomerella lacenarium (Colletotrichum lacenarium); test: Glomerella lacenarium (Colletotrichum lacenarium) liquid culture / cucumber / preventative (anthracnose); type: cell-based; conditions: 20 ppm in the applied formulation, liquid culture in PDB, 24° C., 3 to 4 days after application, read-out: disease control (inhibition of growth, photometric) compared to untreated control
How it was run: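 Cryostored conidia in potato dextrose broth added to DMSO compound solution in microtiter plates, incubated at 24° C. Growth inhibition read photometrically 3 to 4 days after application, as percent control versus untreated check; compounds tested at 20 ppm.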

Phakopsora pachyrhizi = Phakopsora pachyrhizi / soybean / leaf disc preventative (Asian soybean rust); type: in vivo; conditions: foliar, 200 ppm in the applied formulation, soybean leaf disks, assessed 12 to 14 days after application, read-out: disease control compared to untreated control leaf disks
Description: Leaf disks or leaf segments of various plant species are cut from plants grown in a greenhouse. The cut leaf disks or segments are placed in multiwell plates (24-well format) onto water agar. The leaf disks are sprayed with a test solution before (preventative) or after (curative) inoculation. Compounds to be tested are prepared as DMSO solutions (max. 10 mg/mL) which are diluted to the appropriate concentration with 0.025% Tween20 just before spraying. The inoculated leaf disks or segments are incubated under defined conditions (temperature, relative humidity, light, etc.) according to the respective test system. A single evaluation of disease level is carried out 3 to 14 days after inoculation, depending on the pathosystem. Percent disease control relative to the untreated check leaf disks or segments is then calculated.
Example 3: Fungicidal Activity Against Phakopsora pachyrhizi/Soybean/Leaf Disc Preventative (Asian Soybean Rust)
Soybean leaf disks are placed on water agar in multiwell plates (24-well format) and sprayed with the formulated test compound diluted in water. One day after application leaf discs are inoculated by spraying a spore suspension on the lower leaf surface. After an incubation period in a climate cabinet of 24-36 hours in darkness at 20° C. and 75% relative humidity leaf disc are kept at 20° C. with 12 hours light/day and 75% relative humidity. The activity of a compound is assessed as percent disease control compared to untreated when an appropriate level of disease damage appears in untreated check leaf disks (12 to 14 days after application).
The following compounds at 200 ppm in the applied formulation give at least 80% disease control in this test when compared to untreated control leaf disks under the same conditions, which show extensive disease development.

CCC(=O)C(=O)N(CC)Cc1ccc(-c2noc(C(F)(F)F)n2)cc1 [Compound 1.99, N-ethyl-2-oxo-N-[[4-[5-(trifluoromethyl)-1,2,4-oxadiazol-3-yl]phenyl]methyl]butanamide]
≥ 80%: pest or weed control at 200 ppm [1] | pest or weed control at 200 ppm [2] | inhibition at 20 ppm [3] | pest or weed control at 200 ppm (Phakopsora pachyrhizi)

O=C(NCc1ccc(-c2noc(C(F)(F)F)n2)c(F)c1)C(=O)c1cccs1 [Compound 1.44, N-[[3-fluoro-4-[5-(trifluoromethyl)-1,2,4-oxadiazol-3-yl]phenyl]methyl]-2-oxo-2-(2-thienyl)acetamide]
≥ 80%: pest or weed control at 200 ppm [1] | pest or weed control at 200 ppm [2] | inhibition at 20 ppm [3] | pest or weed control at 200 ppm (Phakopsora pachyrhizi)

O=C(NCc1ccc(-c2noc(C(F)(F)F)n2)c(F)c1F)C(=O)c1cccs1 [Compound 1.48, N-[[2,3-difluoro-4-[5-(trifluoromethyl)-1,2,4-oxadiazol-3-yl]phenyl]methyl]-2-oxo-2-(2-thienyl)acetamide]
≥ 80%: pest or weed control at 200 ppm [1] | inhibition at 20 ppm [3] | pest or weed control at 200 ppm (Phakopsora pachyrhizi)

C=CCNC(=O)C(=O)N(Cc1ccc(-c2noc(C(F)(F)F)n2)cc1)OC [Compound 4.76, N-allyl-N′-methoxy-N′-[[4-[5-(trifluoromethyl)-1,2,4-oxadiazol-3-yl]phenyl]methyl] oxamide]
≥ 80%: pest or weed control at 200 ppm [1] | pest or weed control at 200 ppm [2] | inhibition at 20 ppm [3] | pest or weed control at 200 ppm (Phakopsora pachyrhizi)

C=CCN(Cc1ccc(-c2noc(C(F)(F)F)n2)cc1)C(=O)C(N)=O [Compound 4.26, N′-allyl-N′-[[4-[5-(trifluoromethyl)-1,2,4-oxadiazol-3-yl]phenyl]methyl] oxamide]
≥ 80%: pest or weed control at 200 ppm [1] | pest or weed control at 200 ppm [2] | inhibition at 20 ppm [3] | pest or weed control at 200 ppm (Phakopsora pachyrhizi)

O=C(NCc1c(F)cc(-c2noc(C(F)(F)F)n2)cc1F)C(=O)c1ccccc1 [Compound 1.68, N-[[2,6-difluoro-4-[5-(trifluoromethyl)-1,2,4-oxadiazol-3-yl]phenyl]methyl]-2-oxo-2-phenyl-acetamide]
≥ 80%: pest or weed control at 200 ppm [1] | inhibition at 20 ppm [3] | pest or weed control at 200 ppm (Phakopsora pachyrhizi)

O=C(NCc1ccc(-c2noc(C(F)(F)F)n2)cc1Cl)C(=O)c1cccs1 [Compound 1.62, N-[[2-chloro-4-[5-(trifluoromethyl)-1,2,4-oxadiazol-3-yl]phenyl]methyl]-2-oxo-2-(2-thienyl)acetamide]
≥ 80%: pest or weed control at 200 ppm [1] | inhibition at 20 ppm [3] | pest or weed control at 200 ppm (Phakopsora pachyrhizi)

CON(Cc1ccc(-c2noc(C(F)(F)F)n2)cc1F)C(=O)C(=O)C(C)(C)C [Compound 1.57, N-[[2-fluoro-4-[5-(trifluoromethyl)-1,2,4-oxadiazol-3-yl]phenyl]methyl]-N-methoxy-3,3-dimethyl-2-oxo-butanamide]
≥ 80%: pest or weed control at 200 ppm [1] | inhibition at 20 ppm [3] | pest or weed control at 200 ppm (Phakopsora pachyrhizi)

CON(Cc1ccc(-c2noc(C(F)(F)F)n2)cc1F)C(=O)C(=O)c1ccccc1 [Compound 1.54, N-[[2-fluoro-4-[5-(trifluoromethyl)-1,2,4-oxadiazol-3-yl]phenyl]methyl]-N-methoxy-2-oxo-2-phenyl-acetamide]
≥ 80%: pest or weed control at 200 ppm [1] | inhibition at 20 ppm [3] | pest or weed control at 200 ppm (Phakopsora pachyrhizi)

O=C(NCc1ccc(-c2noc(C(F)(F)F)n2)c(F)c1F)C(=O)c1ccccc1 [Compound 1.46, N-[[2,3-difluoro-4-[5-(trifluoromethyl)-1,2,4-oxadiazol-3-yl]phenyl]methyl]-2-oxo-2-phenyl-acetamide]
≥ 80%: pest or weed control at 200 ppm [1] | inhibition at 20 ppm [3] | pest or weed control at 200 ppm (Phakopsora pachyrhizi)

O=C(NCc1ccc(-c2noc(C(F)(F)F)n2)cc1Cl)C(=O)c1ccco1 [Compound 1.84, N-[[2-chloro-4-[5-(trifluoromethyl)-1,2,4-oxadiazol-3-yl]phenyl]methyl]-2-(2-furyl)-2-oxo-acetamide]
≥ 80%: pest or weed control at 200 ppm [1] | inhibition at 20 ppm [3] | pest or weed control at 200 ppm (Phakopsora pachyrhizi)

CC(C)(C)C(=O)C(=O)NCc1ccc(-c2noc(C(F)(F)F)n2)cc1Cl [Compound 1.63, N-[[2-chloro-4-[5-(trifluoromethyl)-1,2,4-oxadiazol-3-yl]phenyl]methyl]-3,3-dimethyl-2-oxo-butanamide]
≥ 80%: pest or weed control at 200 ppm [1] | inhibition at 20 ppm [3] | pest or weed control at 200 ppm (Phakopsora pachyrhizi)

O=C(NCc1ccc(-c2noc(C(F)(F)F)n2)cc1Cl)C(=O)c1ccccc1 [Compound 1.59, N-[[2-chloro-4-[5-(trifluoromethyl)-1,2,4-oxadiazol-3-yl]phenyl]methyl]-2-oxo-2-phenyl-acetamide]
≥ 80%: pest or weed control at 200 ppm [1] | inhibition at 20 ppm [3] | pest or weed control at 200 ppm (Phakopsora pachyrhizi)

Cc1cc(-c2noc(C(F)(F)F)n2)ccc1CNC(=O)C(=O)c1ccco1 [Compound 1.86]
≥ 80%: pest or weed control at 200 ppm [1] | pest or weed control at 200 ppm (Phakopsora pachyrhizi)

Cc1cc(-c2noc(C(F)(F)F)n2)ccc1CNC(=O)C(=O)c1cccs1 [Compound 1.66, N-[[2-methyl-4-[5-(trifluoromethyl)-1,2,4-oxadiazol-3-yl]phenyl]methyl]-2-oxo-2-(2-thienyl)acetamide]
≥ 80%: pest or weed control at 200 ppm [1] | pest or weed control at 200 ppm (Phakopsora pachyrhizi)

C=CCN(Cc1ccc(-c2noc(C(F)(F)F)n2)cc1)C(=O)C(C)=O [Compound 1.16, N-allyl-2-oxo-N-[[4-[5-(trifluoromethyl)-1,2,4-oxadiazol-3-yl]phenyl]methyl]propanamide]
≥ 80%: pest or weed control at 200 ppm [2] | inhibition at 20 ppm [3] | pest or weed control at 200 ppm (Phakopsora pachyrhizi)

CON(Cc1ccc(-c2noc(C(F)(F)F)n2)cc1F)C(=O)C(=O)c1cccs1 [Compound 1.56, N-[[2-fluoro-4-[5-(trifluoromethyl)-1,2,4-oxadiazol-3-yl]phenyl]methyl]-N-methoxy-2-oxo-2-(2-thienyl)acetamide]
≥ 80%: pest or weed control at 200 ppm [1] | inhibition at 20 ppm [3] | pest or weed control at 200 ppm (Phakopsora pachyrhizi)

CCCCON(Cc1ccc(-c2noc(C(F)(F)F)n2)cc1)C(=O)C(N)=O [Compound 4.87, N′-butoxy-N′-[[4-[5-(trifluoromethyl)-1,2,4-oxadiazol-3-yl]phenyl]methyl] oxamide]
≥ 80%: pest or weed control at 200 ppm [1] | inhibition at 20 ppm [3] | pest or weed control at 200 ppm (Phakopsora pachyrhizi)

O=C(NCC1COCCO1)C(=O)Nc1ccc(-c2noc(C(F)(F)F)n2)cc1 (stereo not shown) [Compound 4.19, N-(1,4-dioxan-2-ylmethyl)-N′-[4-[5-(trifluoromethyl)-1,2,4-oxadiazol-3-yl]phenyl]oxamide]
≥ 80%: pest or weed control at 200 ppm [1] | pest or weed control at 200 ppm (Phakopsora pachyrhizi)

O=C(NCc1ccc(-c2noc(C(F)(F)F)n2)c(F)c1)C(=O)c1ccccc1 [Compound 1.42, N-[[3-fluoro-4-[5-(trifluoromethyl)-1,2,4-oxadiazol-3-yl]phenyl]methyl]-2-oxo-2-phenyl-acetamide]
≥ 80%: pest or weed control at 200 ppm [1] | inhibition at 20 ppm [3] | pest or weed control at 200 ppm (Phakopsora pachyrhizi)

CON(Cc1ccc(-c2noc(C(F)(F)F)n2)cc1)C(=O)C(=O)c1cccs1 [Compound 1.73, N-methoxy-2-oxo-2-(2-thienyl)-N-[[4-[5-(trifluoromethyl)-1,2,4-oxadiazol-3-yl]phenyl]methyl]acetamide]
≥ 80%: pest or weed control at 200 ppm [1] | inhibition at 20 ppm [3] | pest or weed control at 200 ppm (Phakopsora pachyrhizi)
